According to patent publication US20250296959A1, “B7-H3 TARGETING PEPTIDES AND CONSTRUCTS THEREOF” (Mariana Oncology Inc., priority 2024, published 2025):
Starred links: 1 amine or outer side, 2 acyl side, 3 side chain; linkers in the order of their positions; H or OH if unused. Positions of bridges follow the written chain, without caps; N, C: chain ends. Non-standard residues stand in square brackets, D forms with d. Residues, ends and D or L forms follow the SMILES beside them. *: point of attachment. Ala(piperidin-4-yl) = O=C([C@H](CC1CCN([*:3])CC1)N[*:1])[*:2]; DOTA = O=C(O)CN1CCN(CC(=O)O)CCN(CC(=O)*)CCN(CC(=O)O)CC1; Trp(5-F) = N[C@@H](Cc1c[nH]c2ccc(F)cc12)C(=O)O; 1Nal = N[C@@H](Cc1cccc2ccccc12)C(=O)O; Ala(4-THP) = N[C@@H](CC1CCOCC1)C(=O)O; Gly(4-THP) = N[C@H](C(=O)O)C1CCOCC1; Val(3-OH) = CC(C)(O)[C@H](N)C(=O)O; NMeF = CN[C@@H](Cc1ccccc1)C(=O)O; 4Pal = N[C@@H](Cc1ccncc1)C(=O)O; Abu(4-CN) = N#CCC[C@H](N)C(=O)O; Cha = N[C@@H](CC1CCCCC1)C(=O)O; Chg = N[C@H](C(=O)O)C1CCCCC1; Tle = CC(C)(C)[C@H](N)C(=O)O; hLeu = CC(C)CC[C@H](N)C(=O)O; NMeS = CN[C@@H](CO)C(=O)O; Nle = CCCC[C@H](N)C(=O)O

What follows are compounds tested against T1, human 4lg B7-H3 (Homo sapiens, UniProt Q5ZPR3) (assay: Affinity determination by surface plasmon resonance (SPR) to 4Ig B7-H3). Details: SPR KD—25° C., 4Ig B7-H3; 25° C. flow cell temperature.
T1 sequence (Q5ZPR3 29-534): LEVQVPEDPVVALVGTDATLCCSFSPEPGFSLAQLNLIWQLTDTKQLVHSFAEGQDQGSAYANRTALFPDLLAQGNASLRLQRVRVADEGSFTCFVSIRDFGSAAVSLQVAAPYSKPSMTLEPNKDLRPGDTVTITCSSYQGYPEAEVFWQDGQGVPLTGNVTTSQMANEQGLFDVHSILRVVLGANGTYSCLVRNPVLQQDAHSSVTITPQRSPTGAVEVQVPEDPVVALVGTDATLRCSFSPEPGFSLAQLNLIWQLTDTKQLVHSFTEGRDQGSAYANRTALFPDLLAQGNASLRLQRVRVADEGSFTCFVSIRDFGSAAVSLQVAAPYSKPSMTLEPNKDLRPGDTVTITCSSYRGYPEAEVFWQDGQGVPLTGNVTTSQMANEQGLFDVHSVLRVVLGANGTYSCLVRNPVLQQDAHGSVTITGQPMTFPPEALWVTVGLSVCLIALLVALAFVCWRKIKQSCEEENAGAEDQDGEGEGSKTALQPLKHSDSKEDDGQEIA
A Kd of 1 to 10 nM was found for `CC(=O)N[C@@H](CCC(C)C)C(=O)N[C@@H](Cc1ccc(O)cc1)C(=O)N[C@H]1CSSC[C@@H](C(=O)N[C@@H](Cc2c[nH]c3ccc(F)cc23)C(=O)N(C)[C@@H](Cc2ccccc2)C(=O)N[C@H](C(=O)N[C@H](CCCCNC(=O)CN2CCN(CC(=O)O)CCN(CC(=O)O)CCN(CC(=O)O)CC2)C(N)=O)[C@@H](C)O)NC(=O)[C@H](Cc2ccc(O)cc2)NC(=O)[C@H](C(C)C)NC(=O)[C@H](CC(=O)O)NC(=O)[C@H](Cc2ccc(O)cc2)NC(=O)[C@H](CCCCN)NC(=O)CNC(=O)[C@H](C(C)C)NC1=O` [compound 205, Ac-hLeu-Y-C-V-G-K-Y-D-V-Y-C-5FW-NMePhe-Thr-dLys(DOTA)-CONH2] (Ac-[hLeu]YCVGKYDVYC[Trp(5-F)][NMeF]T[dK](DOTA)-NH2; disulfide 3-11) in this work.
A Kd of 10 to 100 nM was found for `CC(=O)N[C@@H](CCC(C)C)C(=O)N[C@H](C(=O)N[C@H]1CSSC[C@@H](C(=O)N[C@@H](Cc2c[nH]c3ccc(F)cc23)C(=O)N[C@@H](Cc2ccccc2)C(=O)N(C)[C@@H](CO)C(=O)N[C@H](CCCCNC(=O)CN2CCN(CC(=O)O)CCN(CC(=O)O)CCN(CC(=O)O)CC2)C(N)=O)NC(=O)[C@H](Cc2ccc(O)cc2)NC(=O)[C@H](C(C)C)NC(=O)[C@H](CC(=O)O)NC(=O)[C@H](Cc2ccc(O)cc2)NC(=O)[C@H](CC2CCNCC2)NC(=O)CNC(=O)[C@H](C(C)C)NC1=O)C(C)(C)O` [compound 211, Ac-hLeu-hyVal-C-V-G-PipAla-Y-D-V-Y-C-5FW-F-NMeSer-dLys(DOTA)-CONH2] (Ac-[hLeu][Val(3-OH)]CVG[Ala(piperidin-4-yl)]YDVYC[Trp(5-F)]F[NMeS][dK](DOTA)-NH2; disulfide 3-11) in this work.
A Kd of 100 to 300 nM was found for `CC(=O)N[C@@H](CCC(C)C)C(=O)N[C@H](C(=O)N[C@H]1CSSC[C@@H](C(=O)N[C@@H](Cc2c[nH]c3ccc(F)cc23)C(=O)N[C@@H](Cc2ccccc2)C(=O)N(C)[C@@H](CO)C(=O)N[C@H](CCCCNC(=O)CN2CCN(CC(=O)O)CCN(CC(=O)O)CCN(CC(=O)O)CC2)C(N)=O)NC(=O)[C@H](Cc2ccc(O)cc2)NC(=O)[C@H](C(C)C)NC(=O)[C@H](CC(=O)O)NC(=O)[C@H](Cc2ccc(O)cc2)NC(=O)[C@H](CC2CCNCC2)NC(=O)CNC(=O)[C@H](C(C)C)NC1=O)C1CCCCC1` [compound 212, Ac-hLeu-Chg-C-V-G-PipAla-Y-D-V-Y-C-5FW-F-NMeSer-dLys(DOTA)-CONH2] (Ac-[hLeu][Chg]CVG[Ala(piperidin-4-yl)]YDVYC[Trp(5-F)]F[NMeS][dK](DOTA)-NH2; disulfide 3-11) in this work.
A Kd of 100 to 300 nM was found for `CC(=O)N[C@@H](CCC(C)C)C(=O)N[C@H](C(=O)N[C@H]1CSSC[C@@H](C(=O)N[C@@H](Cc2c[nH]c3ccc(F)cc23)C(=O)N[C@@H](Cc2ccccc2)C(=O)N(C)[C@@H](CO)C(=O)N[C@H](CCCCNC(=O)CN2CCN(CC(=O)O)CCN(CC(=O)O)CCN(CC(=O)O)CC2)C(N)=O)NC(=O)[C@H](Cc2ccc(O)cc2)NC(=O)[C@H](C(C)C)NC(=O)[C@H](CC(=O)O)NC(=O)[C@H](Cc2ccc(O)cc2)NC(=O)[C@H](CC2CCNCC2)NC(=O)CNC(=O)[C@H](C(C)C)NC1=O)C1CCOCC1` [compound 213, Ac-hLeu-ThpG-C-V-G-PipAla-Y-D-V-Y-C-5FW-F-NMeSer-dLys(DOTA)-CONH2] (Ac-[hLeu][Gly(4-THP)]CVG[Ala(piperidin-4-yl)]YDVYC[Trp(5-F)]F[NMeS][dK](DOTA)-NH2; disulfide 3-11) in this work.
With `CC(=O)N[C@@H](CCC(C)C)C(=O)N[C@@H](Cc1ccc(O)cc1)C(=O)N[C@H]1CSSC[C@@H](C(=O)N[C@@H](Cc2c[nH]c3ccccc23)C(=O)N[C@@H](Cc2ccccc2)C(=O)N[C@H](C(=O)N[C@H](CCCCNC(=O)CN2CCN(CC(=O)O)CCN(CC(=O)O)CCN(CC(=O)O)CC2)C(N)=O)[C@@H](C)O)NC(=O)[C@H](Cc2ccc(O)cc2)NC(=O)[C@H](C2CCCCC2)NC(=O)[C@H](CC(=O)O)NC(=O)[C@H](Cc2ccc(O)cc2)NC(=O)[C@H](CCCCN)NC(=O)CNC(=O)[C@H](C(C)(C)C)NC1=O` [compound 216, Ac-hLeu-Y-C-Tbg-G-K-Y-D-ChG-Y-C-W-F-Thr-dLys(DOTA)-CONH2] (Ac-[hLeu]YC[Tle]GKYD[Chg]YCWFT[dK](DOTA)-NH2; disulfide 3-11) the Kd was < 1 nM.
A Kd of 1 to 10 nM was found for `CCCC[C@@H]1NC(=O)[C@@H](NC(=O)[C@H](Cc2ccc(O)cc2)NC(=O)[C@H](CCC(C)C)NC(C)=O)CSSC[C@@H](C(=O)N[C@@H](Cc2c[nH]c3ccc(F)cc23)C(=O)N[C@@H](Cc2ccccc2)C(=O)N[C@H](C(=O)N[C@H](CCCCNC(=O)CN2CCN(CC(=O)O)CCN(CC(=O)O)CCN(CC(=O)O)CC2)C(N)=O)[C@@H](C)O)NC(=O)[C@H](Cc2ccc(O)cc2)NC(=O)[C@H](C(C)C)NC(=O)[C@H](CC(=O)O)NC(=O)[C@H](Cc2ccc(O)cc2)NC(=O)[C@H](CCCCN)NC(=O)CNC1=O` [compound 217, Ac-hLeu-Y-C-Nle-G-K-Y-D-V-Y-C-5FW-F-Thr-dLys(DOTA)-CONH2] (Ac-[hLeu]YC[Nle]GKYDVYC[Trp(5-F)]FT[dK](DOTA)-NH2; disulfide 3-11) in this work.
A Kd of 1 to 10 nM was found for `CC(=O)N[C@@H](CCC(C)C)C(=O)N[C@@H](Cc1ccc(O)cc1)C(=O)N[C@H]1CSSC[C@@H](C(=O)N[C@@H](Cc2cccc3ccccc23)C(=O)N[C@@H](Cc2ccccc2)C(=O)N(C)[C@@H](CO)C(=O)N[C@H](CCCCNC(=O)CN2CCN(CC(=O)O)CCN(CC(=O)O)CCN(CC(=O)O)CC2)C(N)=O)NC(=O)[C@H](Cc2ccc(O)cc2)NC(=O)[C@H](C(C)C)NC(=O)[C@H](CC(=O)O)NC(=O)[C@H](Cc2ccncc2)NC(=O)[C@H](CCCCN)NC(=O)CNC(=O)[C@H](C(C)(C)C)NC1=O` [compound 219, Ac-hLeu-Y-C-Tbg-G-K-4PyA-D-V-Y-C-1Nal-F-NMeSer-dLys(DOTA)-CONH2] (Ac-[hLeu]YC[Tle]GK[4Pal]DVYC[1Nal]F[NMeS][dK](DOTA)-NH2; disulfide 3-11) in this work.
A Kd of 10 to 100 nM was found for `CC(=O)N[C@@H](CCC(C)C)C(=O)N[C@@H](Cc1ccc(O)cc1)C(=O)N[C@H]1CSSC[C@@H](C(=O)N[C@@H](Cc2cccc3ccccc23)C(=O)N[C@@H](Cc2ccccc2)C(=O)N(C)[C@@H](CO)C(=O)N[C@H](CCCCNC(=O)CN2CCN(CC(=O)O)CCN(CC(=O)O)CCN(CC(=O)O)CC2)C(N)=O)NC(=O)[C@H](CC2CCCCC2)NC(=O)[C@H](C(C)C)NC(=O)[C@H](CC(=O)O)NC(=O)[C@H](Cc2ccncc2)NC(=O)[C@H](CCCCN)NC(=O)CNC(=O)[C@H](C(C)(C)C)NC1=O` [compound 220, Ac-hLeu-Y-C-Tbg-G-K-4PyA-D-V-Cha-C-1Nal-F-NMeSer-dLys(DOTA)-CONH2] (Ac-[hLeu]YC[Tle]GK[4Pal]DV[Cha]C[1Nal]F[NMeS][dK](DOTA)-NH2; disulfide 3-11) in this work.
A Kd of 100 to 300 nM was found for `CC(=O)N[C@@H](CCC(C)C)C(=O)N[C@@H](Cc1ccc(O)cc1)C(=O)N[C@H]1CSSC[C@@H](C(=O)N[C@@H](Cc2cccc3ccccc23)C(=O)N[C@@H](Cc2ccccc2)C(=O)N(C)[C@@H](CO)C(=O)N[C@H](CCCCNC(=O)CN2CCN(CC(=O)O)CCN(CC(=O)O)CCN(CC(=O)O)CC2)C(N)=O)NC(=O)[C@H](CCC#N)NC(=O)[C@H](C(C)C)NC(=O)[C@H](CC(=O)O)NC(=O)[C@H](Cc2ccncc2)NC(=O)[C@H](CCCCN)NC(=O)CNC(=O)[C@H](C(C)(C)C)NC1=O` [compound 221, Ac-hLeu-Y-C-Tbg-G-K-4PyA-D-V-CyanoButric-C-1Nal-F-NMeSer-dLys(DOTA)-CONH2] (Ac-[hLeu]YC[Tle]GK[4Pal]DV[Abu(4-CN)]C[1Nal]F[NMeS][dK](DOTA)-NH2; disulfide 3-11) in this work.
A Kd of 10 to 100 nM was found for `CC(=O)N[C@@H](CCC(C)C)C(=O)N[C@@H](Cc1ccc(O)cc1)C(=O)N[C@H]1CSSC[C@@H](C(=O)N[C@@H](Cc2cccc3ccccc23)C(=O)N[C@@H](Cc2ccccc2)C(=O)N(C)[C@@H](CO)C(=O)N[C@H](CCCCNC(=O)CN2CCN(CC(=O)O)CCN(CC(=O)O)CCN(CC(=O)O)CC2)C(N)=O)NC(=O)[C@H](CC2CCOCC2)NC(=O)[C@H](C(C)C)NC(=O)[C@H](CC(=O)O)NC(=O)[C@H](Cc2ccncc2)NC(=O)[C@H](CCCCN)NC(=O)CNC(=O)[C@H](C(C)(C)C)NC1=O` [compound 223, Ac-hLeu-Y-C-Tbg-G-K-4PyA-D-V-ThpA-C-1Nal-F-NMeSer-dLys(DOTA)-CONH2] (Ac-[hLeu]YC[Tle]GK[4Pal]DV[Ala(4-THP)]C[1Nal]F[NMeS][dK](DOTA)-NH2; disulfide 3-11) in this work.
A Kd of 10 to 100 nM was found for `CCCC[C@@H]1NC(=O)[C@H](C(C)C)NC(=O)[C@H](CC(=O)O)NC(=O)[C@H](Cc2ccncc2)NC(=O)[C@H](CCCCN)NC(=O)CNC(=O)[C@H](C(C)(C)C)NC(=O)[C@@H](NC(=O)[C@H](Cc2ccc(O)cc2)NC(=O)[C@H](CCC(C)C)NC(C)=O)CSSC[C@@H](C(=O)N[C@@H](Cc2cccc3ccccc23)C(=O)N[C@@H](Cc2ccccc2)C(=O)N(C)[C@@H](CO)C(=O)N[C@H](CCCCNC(=O)CN2CCN(CC(=O)O)CCN(CC(=O)O)CCN(CC(=O)O)CC2)C(N)=O)NC1=O` [compound 225, Ac-hLeu-Y-C-Tbg-G-K-4PyA-D-V-Nle-C-1Nal-F-NMeSer-dLys(DOTA)-CONH2] (Ac-[hLeu]YC[Tle]GK[4Pal]DV[Nle]C[1Nal]F[NMeS][dK](DOTA)-NH2; disulfide 3-11) in this work.
